Measured values published in the NIST ThermoML archive (doi:10.1016/j.jct.2004.09.007).
± gives the expanded uncertainty stated by the source.

Assay: molar heat capacity at constant pressure; xn = mol fraction of the nth substance listed
Details: 101.3 kPa, Liquid, Large sample (1 g) DSC

CC(O)CCO (stereo not drawn) [1,3-butanediol] + CCCCO
molar heat capacity at constant pressure [J/K/mol]
Details	x1 = 0.189	x1 = 0.2983	x1 = 0.436	x1 = 0.5902	x1 = 0.7056	x1 = 0.8961	x1 = 1
285.15 K	178.21 ± 2.8	183.56 ± 2.8	189.77 ± 2.9	196.24 ± 3	200.97 ± 3.1	210.06 ± 3.2	211.74 ± 3.3
285.65 K	178.59 ± 2.8	183.85 ± 2.9	190.08 ± 2.9	196.61 ± 3	201.4 ± 3.1	208.67 ± 3.2	212.17 ± 3.3
288.15 K	179.92 ± 2.8	185.21 ± 2.9	191.37 ± 3	198 ± 3.1	202.79 ± 3.1	210.1 ± 3.2	213.57 ± 3.3
290.65 K	181.38 ± 2.8	186.6 ± 2.9	192.85 ± 3	199.46 ± 3.1	204.22 ± 3.2	211.53 ± 3.3	215.06 ± 3.3
293.15 K	182.92 ± 2.8	188.08 ± 2.9	194.38 ± 3	200.87 ± 3.1	205.67 ± 3.2	213 ± 3.3	216.58 ± 3.4
295.65 K	184.43 ± 2.9	189.64 ± 2.9	195.81 ± 3	202.4 ± 3.1	207.15 ± 3.2	214.51 ± 3.3	218.04 ± 3.4
298.15 K	186.01 ± 2.9	191.11 ± 3	197.31 ± 3.1	203.91 ± 3.2	208.58 ± 3.2	216.08 ± 3.4	219.62 ± 3.4
300.65 K	187.6 ± 2.9	192.65 ± 3	198.88 ± 3.1	205.47 ± 3.2	210.16 ± 3.3	217.6 ± 3.4	221.14 ± 3.4
303.15 K	189.31 ± 2.9	194.35 ± 3	200.51 ± 3.1	207.08 ± 3.2	211.81 ± 3.3	219.24 ± 3.4	222.8 ± 3.5
305.65 K	191.04 ± 3	195.99 ± 3	202.12 ± 3.1	208.6 ± 3.2	213.36 ± 3.3	220.73 ± 3.4	224.37 ± 3.5
308.15 K	192.78 ± 3	197.71 ± 3.1	203.81 ± 3.2	210.26 ± 3.3	215.04 ± 3.3	222.49 ± 3.5	226.07 ± 3.5
310.65 K	194.41 ± 3	199.34 ± 3.1	205.42 ± 3.2	211.86 ± 3.3	216.58 ± 3.4	224.04 ± 3.5	227.65 ± 3.5
313.15 K	196.3 ± 3	201.02 ± 3.1	207.06 ± 3.2	213.43 ± 3.3	218.21 ± 3.4	225.64 ± 3.5	229.24 ± 3.5
315.65 K	198.07 ± 3.1	202.81 ± 3.1	208.71 ± 3.2	215.01 ± 3.3	219.75 ± 3.4	227.18 ± 3.5	230.82 ± 3.6
318.15 K	199.98 ± 3.1	204.63 ± 3.2	210.53 ± 3.3	216.77 ± 3.4	221.57 ± 3.4	228.97 ± 3.5	232.6 ± 3.6
320.65 K	201.89 ± 3.1	206.47 ± 3.2	212.31 ± 3.3	218.48 ± 3.4	223.19 ± 3.5	230.61 ± 3.6	234.14 ± 3.6
323.15 K	203.75 ± 3.2	208.15 ± 3.2	214.02 ± 3.3	220.21 ± 3.4	224.86 ± 3.5	232.26 ± 3.6	235.83 ± 3.6
325.65 K	205.57 ± 3.2	210.02 ± 3.2	215.77 ± 3.3	221.9 ± 3.4	226.54 ± 3.5	233.95 ± 3.6	237.52 ± 3.7
328.15 K	207.42 ± 3.2	211.77 ± 3.3	217.34 ± 3.4	223.44 ± 3.5	228.18 ± 3.5	235.52 ± 3.6	239.08 ± 3.7
330.65 K	209.47 ± 3.2	213.61 ± 3.3	219.1 ± 3.4	225.17 ± 3.5	229.9 ± 3.6	237.35 ± 3.7	240.59 ± 3.7
333.15 K	211.36 ± 3.3	215.41 ± 3.3	220.86 ± 3.4	226.84 ± 3.5	231.42 ± 3.6	238.77 ± 3.7	242.28 ± 3.8
335.65 K	213.23 ± 3.3	217.15 ± 3.4	222.54 ± 3.5	228.47 ± 3.5	232.95 ± 3.6	240.35 ± 3.7	243.86 ± 3.8
338.15 K	215.01 ± 3.3	218.85 ± 3.4	224.14 ± 3.5	229.97 ± 3.6	234.44 ± 3.6	241.71 ± 3.7	245.11 ± 3.8
340.65 K	217.62 ± 3.4	220.95 ± 3.4	226.11 ± 3.5	231.92 ± 3.6	236.35 ± 3.7	243.67 ± 3.8	247.19 ± 3.8
343.15 K	219.25 ± 3.4	222.78 ± 3.5	227.81 ± 3.5	233.46 ± 3.6	237.95 ± 3.7	245.19 ± 3.8	248.62 ± 3.9
345.65 K	221.09 ± 3.4	224.51 ± 3.5	229.58 ± 3.6	235.21 ± 3.6	239.85 ± 3.7	246.7 ± 3.8	250.13 ± 3.9
348.15 K	223.12 ± 3.5	226.46 ± 3.5	231.31 ± 3.6	236.83 ± 3.7	241.5 ± 3.7	248.27 ± 3.9	251.66 ± 3.9
350.65 K	224.98 ± 3.5	228.29 ± 3.5	232.97 ± 3.6	238.43 ± 3.7	242.73 ± 3.8	249.77 ± 3.9	253.24 ± 3.9
353.15 K	227.13 ± 3.5	230.3 ± 3.6	234.85 ± 3.6	240.2 ± 3.7	244.5 ± 3.8	251.52 ± 3.9	254.86 ± 4
